Our source for the EC50 values is US12595248B2, “PRMT5 inhibitors” (Merck Sharp & Dohme LLC, priority 2019, dated 2026).

In experiment [1] the target is T1, PRMT5-MEP50 enzyme complex (Homo sapiens, UniProt O14744).
T1 construct: Full-length (FL)-PRMT5-MEP50 enzyme complex (recombinant proteins from baculovirus-transfected Sf21 cells: FL-PRMT5; MW=73837 kDa and FL-MEP50; MW=38614); made in house; host or cells: baculovirus-transfected Sf21 cells
In words: PRMT5-MEP50 Enzyme Methylation Assay (Version B). The format is biochemical. On the procedure:
PRMT5-MEP50 Enzyme Methylation Assay (Version B)
PRMT5-MEP50 biochemical assay is a direct measurement of the methylation activity of the enzyme complex on a short peptide substrate derived from the N-terminus of H4 histone. Methylation experiment was performed with recombinant PRMT5-MEP50 protein complex. The assessment of inhibitory effect (EC50) of small molecules was measured by the effectiveness of the compounds to inhibit this reaction.
In this assay, the potency (EC50) of each compound was determined from a twenty-point (1:2 serial dilution; top compound concentration of 100000 nM) titration curve using the following outlined procedure. To each well of a white ProxiPlus 384 well-plate, 100 nL of compound (1% DMSO in final assay volume of 10 μL) was dispensed, followed by the addition of 8 μL of 1× assay buffer (50 mM Bicine pH 8.0, 1 mM DTT, 0.004% Tween20, 0.01% BSA) containing 0.625 nM of Full-length (FL)-PRMT5-MEP50 enzyme complex (recombinant proteins from baculovirus-transfected Sf21 cells: FL-PRMT5; MW=[…] and FL-MEP50; MW=38614). Plates were sealed and placed in a 37° C. humidified chamber for 30 minutes pre-incubation with compounds. Subsequently, each reaction was initiated by the addition of 2 μL 1× assay buffer containing 375 nM biotinylated H4R3 (MeI) peptide, and 75 μM S-(5′-Adenosyl)-L-Methionine Chloride (SAM). The final reaction in each well of 10 μL consists of 0.5 nM PRMT5-MEP50, 75 nM biotinylated-peptide, and 15 μM SAM. Methylation reactions were allowed to proceed for 150 minutes in a sealed plate at 37° C. Reactions were immediately quenched by the addition of 1 μL of 10% formic acid. Plates were then frozen and shipped to SAMDI™ Tech Inc. to determine the percent conversion from […]. Dose-response curves were generated by plotting percent effect (% product conversion; Y-axis) vs. Log 10 compound concentrations (X-axis). EC50 values were determined by non-linear regression according to models for either sigmoidal (4 parameters) or biphasic (7 parameters) dose-response curves.

The next experiment addresses T2, PRMT5 (Homo sapiens, UniProt O14744).
T2 construct: seeded with 4000 MCF-7 cells in 30 μl media; endogenous in cells; host or cells: MCF-7 cells
Put plainly: PRMT5 Cell Target Engagement (TE) Assay. The settings on record: MCF-7 cells, treated for 3 days, symmetric dimethylation of arginine (SDMA) by high content imaging. It counts as cell-based. The source says: PRMT5 Cell Target Engagement (TE) Assay
The PRMT5 TE assay is a biomarker assay for identifying compounds that inhibit symmetric dimethylation of arginine (SDMA) of PRMT5 substrates. The following substrates have been reported for PRMT5: histone H2A and H4 R3, Histone H3 R2, Histone H3 R8, spliceosome Sm proteins, ribosomal protein RPS10, p53, FEN1, nucleoplasmin, nucleolin, EGFR and EBNA. The assay focuses on detecting symmetrically dimethylated nuclear proteins using high content imaging technology. Detection of the expression of symmetrically dimethylated nuclear proteins is through a mixture of primary rabbit monoclonal antibodies to SDMA (CST 13222), which in turn recognized by an Alexafluor 488 dye-conjugated anti-rabbit IgG secondary antibody. The IN Cell Analyzer 2200 or Opera-Phenix measures nuclear Alexafluor 488 fluorescent dye intensity that is directly related to the level of expression of symmetrically dimethylated nuclear proteins at the single cell level. Nuclear AF488 dye intensities are compared to the mean value for DMSO treated cells (MIN) to report percent of inhibition for each compound-treated well.
In this assay, the cell potency (EC50) of each compound was determined from a ten point (1:3 serial dilution; top compound concentration of 10000 nM) titration curve using the following outlined procedure. Each well of a BD falcon collagen coated black/clear bottom 384-well plate was seeded with 4000 MCF-7 cells in 30 μl media and allowed to attach for 5 h. Media is ATCC-formulated Eagle's Minimum Essential Medium, Catalog No. 30-2003. To make the complete growth medium, the following components were added to the base medium: 0.01 mg/mL human recombinant insulin; fetal bovine serum to a final concentration of 10%. Additional 30 μl of media containing 2× compounds were added to each well. Cells were treated for 3 days in 37° C. CO2 incubator. On day 3, cells were fixed with Cytofix, permeabilized with 0.4% Triton-X-100/Cytofix, and washed with D-PBS without Ca/Mg. Cells were blocked with Licor Odessey blocking reagent for 1 h at room temperature, followed by incubation with anti-SDMA (1:1000) antibody at 4° C. overnight. 1° antibody was removed, followed by three washings with DPBS without Ca/Mg and 0.05% Tween20. Hoechst (5 μg/mL), Cell Mask deep stain (1:2000) and Alexa488-conjugated goat anti-rabbit IgG (2 μg/mL) was added for 1 h at room temperature. A final washing step (three washes) was performed before sealing plate for imaging on In Cell Analyzer 2200 or Opera-Phenix. Images from analyzer were uploaded to Columbus (at WP or BOS) for image analysis. IC50 values were determined by 4 parameters robust fit of percent fluorescence units vs. (Log10) compound concentrations.

[2] abbreviates: first of two EC50s: 7 parameters biphasic model, read-out: Enzyme Methylation Assay Version B (EC50_1).
Setting [3] is: second of two EC50s: 7 parameters biphasic model, read-out: Enzyme Methylation Assay Version B (EC50_2).
Where [4] appears, read: only one EC50 shown: 4 parameters single site sigmoidal model, 30 min pre-incubation, read-out: Enzyme Methylation Assay Version B (EC50).

SMILES strings stand for the structures. Where two headings read alike, the source gives them in different places.

T2 sequence (O14744 whole entry): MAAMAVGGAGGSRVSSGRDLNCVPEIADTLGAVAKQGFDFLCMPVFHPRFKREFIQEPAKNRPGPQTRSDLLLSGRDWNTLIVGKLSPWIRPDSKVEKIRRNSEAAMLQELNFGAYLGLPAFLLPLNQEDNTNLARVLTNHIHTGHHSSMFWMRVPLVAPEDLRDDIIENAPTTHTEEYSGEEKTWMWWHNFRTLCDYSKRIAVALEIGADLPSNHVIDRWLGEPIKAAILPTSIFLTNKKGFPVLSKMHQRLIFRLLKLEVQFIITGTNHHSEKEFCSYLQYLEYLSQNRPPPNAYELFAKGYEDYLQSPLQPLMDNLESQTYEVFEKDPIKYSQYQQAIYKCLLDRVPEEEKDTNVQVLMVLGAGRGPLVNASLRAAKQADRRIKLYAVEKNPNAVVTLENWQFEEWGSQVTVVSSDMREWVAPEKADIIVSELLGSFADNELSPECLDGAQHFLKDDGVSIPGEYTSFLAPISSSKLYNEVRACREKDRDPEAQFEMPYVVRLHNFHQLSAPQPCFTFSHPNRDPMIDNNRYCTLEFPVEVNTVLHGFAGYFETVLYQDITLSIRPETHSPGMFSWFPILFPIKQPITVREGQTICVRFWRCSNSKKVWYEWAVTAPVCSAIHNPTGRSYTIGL
T2 sequence (Q9BQA1 whole entry partner): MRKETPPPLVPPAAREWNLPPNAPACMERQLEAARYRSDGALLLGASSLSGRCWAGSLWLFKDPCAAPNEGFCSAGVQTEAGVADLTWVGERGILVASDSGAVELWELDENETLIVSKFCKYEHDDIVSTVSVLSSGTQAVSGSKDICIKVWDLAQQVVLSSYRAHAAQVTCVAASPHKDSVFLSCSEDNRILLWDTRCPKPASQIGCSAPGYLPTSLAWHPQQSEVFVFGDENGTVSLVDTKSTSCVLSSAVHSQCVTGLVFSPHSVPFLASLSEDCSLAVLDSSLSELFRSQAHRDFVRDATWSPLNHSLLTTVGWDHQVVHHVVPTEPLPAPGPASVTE
T1 sequence (O14744 whole entry): as the sequence (O14744 whole entry) above
T1 sequence (Q9BQA1 whole entry partner): as the sequence (Q9BQA1 whole entry partner) above

Consider `CC(=O)N1CCC(Nc2cc(C(=O)N3CC[C@H](N4CCc5ccccc5C4)[C@@H](O)C3)ccn2)C(F)(F)C1` (single isomer, unassigned) [Example 6], for which the values for the EC50 (in experiment [1] (setting [2]); in experiment [1] (setting [3]); at PRMT5) were 4.8 nM, 2690 nM and 24 nM, respectively.
In the case of `CC(=O)N1CCC(Nc2cc(C(=O)N3CC[C@@H](N4CCc5ccccc5C4)[C@H](O)C3)ccn2)C(F)(F)C1` (single isomer, unassigned) [Example 8], the EC50 in experiment [1] (setting [2]) was around 571 nM; in experiment [1] (setting [3]), above 100000 nM; on PRMT5, 9290 nM.
Consider `O=C(c1ccn(CC(F)(F)F)c(=O)c1)N1CC[C@@H](N2CCc3ccccc3C2)[C@H](O)C1` [Example 32, 4-((3R,4R)-4-(3,4-dihydroisoquinolin-2(1H)-yl)-3-hydroxypiperidine-1-carbonyl)-1-(2,2,2-trifluoroethyl)pyridin-2(1H)-one], for which the EC50 is 2160 nM in experiment [1] (setting [4]) and above 10000 nM at PRMT5.
As to `O=C(c1cc2n(n1)CCN(CC(F)(F)F)C2)N1CC[C@H](N2CCc3ccccc3C2)[C@@H](O)C1` [Example 50, ((3S,4S)-4-(3,4-dihydroisoquinolin-2(1H)-yl)-3-hydroxypiperidin-1-yl)(5-(2,2,2-trifluoroethyl)-4,5,6,7-tetrahydropyrazolo[1,5-a]pyrazin-2-yl)methanone], the EC50 in experiment [1] (setting [2]) is around 76 nM; in experiment [1] (setting [3]), 33500 nM; at PRMT5, 4260 nM.
For the compound `CC(=O)N1CCC(Nc2cc(C(=O)N3CC[C@@H](N4CCc5ccccc5C4)[C@H](O)C3)ccn2)C(F)(F)C1` (single isomer, unassigned) [Example 9], the EC50 amounted to 61 nM in experiment [1] (setting [2]), 8790 nM in experiment [1] (setting [3]) and 1680 nM at PRMT5.
Take `CCOc1cc(C(=O)N2C3CCC2COC3)ccc1C(=O)N1CC[C@@H](N2CCc3ccccc3C2)[C@H](O)C1` [Example 34, (4-(3-oxa-8-azabicyclo[3.2.1]octane-8-carbonyl)-2-ethoxyphenyl)((3R,4R)-4-(3,4-dihydroisoquinolin-2(1H)-yl)-3-hydroxypiperidin-1-yl)methanone]: the values for the EC50 (in experiment [1] (setting [2]); in experiment [1] (setting [3]); at PRMT5) were around 38 nM, 20600 nM and 2220 nM, respectively.
The matching figures for `CC(=O)N1CCC(Nc2nccc(C(=O)N3CC[C@H](N4CCc5ccccc5C4)[C@@H](O)C3)c2F)C(F)(F)C1` (single isomer, unassigned) [Example 15]: 6.8 nM, 3720 nM and 57 nM.
Take `O=C(c1ccc(C(=O)N2C3CCC2COC3)cc1)N1CC[C@H](N2CCc3ccccc3C2)[C@@H](O)C1` [Example 35]: the EC50 in experiment [1] (setting [2]) is 6.6 nM; in experiment [1] (setting [3]), 2580 nM; on PRMT5, 68 nM.
With `O=C(c1ccc(C(=O)N2C3CCC2COC3)cc1)N1CC[C@@H](N2CCc3c(F)cccc3C2)[C@H](O)C1` [Example 38, (4-(3-oxa-8-azabicyclo[3.2.1]octane-8-carbonyl)phenyl)((3R,4R)-4-(5-fluoro-3,4-dihydroisoquinolin-2(1H)-yl)-3-hydroxypiperidin-1-yl)methanone], the EC50 in experiment [1] (setting [2]) is around 402 nM; in experiment [1] (setting [3]), above 100000 nM; on PRMT5, above 10000 nM.
With `Cc1ccc2c(c1)CCN([C@@H]1CCN(C(=O)c3ccc(OCC(F)(F)F)nc3)C[C@H]1O)C2` [Example 5, ((3R,4R)-3-hydroxy-4-(6-methyl-3,4-dihydroisoquinolin-2(1H)-yl)piperidin-1-yl)(6-(2,2,2-trifluoroethoxy)pyridin-3-yl)methanone], the EC50 in experiment [1] (setting [4]) was 1410 nM; at PRMT5, above 10000 nM.
`CC(=O)N1CCC(Nc2cc(C(=O)N3CC[C@H](N4CCc5ccccc5C4)[C@@H](O)C3)c(Cl)cn2)CC1` [Example 49, 1-{4-[(5-chloro-4-{[(3S,4S)-4-(3,4-dihydroisoquinolin-2(1H)-yl)-3-hydroxypiperidin-1-yl]carbonyl}pyridin-2-yl)amino]piperidin-1-yl}ethanone]: the results for the EC50 (in experiment [1] (setting [2]); in experiment [1] (setting [3]); at PRMT5) were 11 nM, 8910 nM and 7.8 nM, respectively.
